Data on nine molecules can be found in patent US12344610B2, “APOL1 inhibitors and methods of use” (Maze Therapeutics, Inc., priority 2022, dated 2025).

Experiment [1] concerns the target T1, APOL1 G2 (Homo sapiens, UniProt O14791, DEL388-389).
T1 construct: expressed in transfected cells; host or cells: HEK293 T-REx clonal line stably expressing GCaMP6f (HEK T-REx/GCaMP6f/APOL1 G2 K6.3), doxycycline induced
T1 sequence (O14791 with tags, fused parts or gaps DEL388-389): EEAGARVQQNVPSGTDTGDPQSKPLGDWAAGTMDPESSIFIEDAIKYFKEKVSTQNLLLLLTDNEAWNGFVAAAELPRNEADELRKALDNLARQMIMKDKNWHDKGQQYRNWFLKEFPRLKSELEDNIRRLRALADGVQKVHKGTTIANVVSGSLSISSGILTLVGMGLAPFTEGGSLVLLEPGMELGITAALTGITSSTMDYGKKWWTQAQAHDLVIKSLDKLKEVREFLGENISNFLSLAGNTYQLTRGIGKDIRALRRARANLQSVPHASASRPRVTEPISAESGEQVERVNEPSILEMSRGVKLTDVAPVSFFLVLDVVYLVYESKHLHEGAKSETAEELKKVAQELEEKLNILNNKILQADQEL
Nature of the experiment: APOL1-mediated calcium transport (calcium influx) assay, HEK T-REx/GCaMP6f/APOL1 G2 K6.3 cells, FLIPR TETRA. In kind it is cell-based. The settings on record: prevention of calcium influx; geometric mean of at least 2 assay runs; † = average of a technical replicate from a single assay run. A digest of the protocol: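 A HEK293 T-REx clone stably expressing GCaMP6f had APOL1 G2 induced with doxycycline (20 ng/mL solution added) for 6 h. Cells were then washed into Ca2+-free Tyrode's buffer (pH 7.4) and preincubated with compounds (duplicate 8-point) for 10 min at room temperature. Ca2+ injection to 5 mM final produced FLIPR GCaMP fluorescence, giving AC50 for influx inhibition (geometric mean, ≥2 runs).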

Experiment [2] deals with HEK293 cells overexpressing APOL1 G2. Description: APOL1 G2 HEK293 cell rescue assay (reversal of cell death caused by overexpression of APOL1). The settings on record: geometric mean of at least 2 assay runs, † = single assay run. In kind it is cell-based. A digest of the protocol: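 EC50 is the half-maximal effective concentration for reversing cell death driven by APOL1 G2 overexpression in HEK293 cells. Reported as geometric mean of at least 2 runs on separate days, each run averaging duplicate wells per plate; some values from a single run.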

The mark [3] stands for this setting: Homo sapiens, HEK293, HEK293 overexpressing APOL1 G2.

As for `CC(c1c(F)cc(OCCN2CCC3(CC2)C(=O)Nc2ccc(C#N)cc23)cc1F)S(C)(=O)=O` (single isomer, unassigned) [Compound 138, (S) or (R)-1′-{2-[3,5-difluoro-4-(1-methanesulfonylethyl)phenoxy]ethyl}-2-oxo-1,2-dihydrospiro[indole-3,4′-piperidine]-5-carbonitrile], the AC50 in experiment [1] amounted to 1220 nM. For the same molecule, the EC50 in experiment [2] (setting [3]) was 78.2 nM.
`CC(c1c(F)cc(OCCN2CCC3(CC2)C(=O)Nc2ccc(C#N)cc23)cc1F)S(C)(=O)=O` (single isomer, unassigned) [Compound 139, (R) or (S)-1′-{2-[3,5-difluoro-4-(1-methanesulfonylethyl)phenoxy]ethyl}-2-oxo-1,2-dihydrospiro[indole-3,4′-piperidine]-5-carbonitrile]: the AC50 in experiment [1] came out at 1120 nM. Further, the EC50 in experiment [2] (HEK293 overexpressing APOL1 G2) turned out to be 133 nM.
As to `CC(c1c(F)cc(OCCN2CCC3(CC2)C(=O)Nc2ccc(Cl)cc23)cc1F)S(C)(=O)=O` (single isomer, unassigned) [Compound 142, (S) or (R)-5-chloro-1′-{2-[3,5-difluoro-4-(1-methanesulfonylethyl)phenoxy]ethyl}-1,2-dihydrospiro[indole-3,4′-piperidin]-2-one], in experiment [1], the AC50 was found to be 845 nM. Moreover, the EC50 in experiment [2] (setting [3]) is 48.3 nM.
For the molecule `CC(c1c(F)cc(OCCN2CCC3(CC2)C(=O)Nc2ccc(Cl)cc23)cc1F)S(C)(=O)=O` (single isomer, unassigned) [Compound 143, (R) or (S)-5-chloro-1′-{2-[3,5-difluoro-4-(1-methanesulfonylethyl)phenoxy]ethyl}-1,2-dihydrospiro[indole-3,4′-piperidin]-2-one], in experiment [1], the AC50 came to 701 nM. Further, the EC50 in experiment [2] (HEK293 overexpressing APOL1 G2) is 36.9 nM.
As to `CN=S(C)(=O)c1ccc(OCCN2CCC3(CC2)C(=O)Nc2ccc(Cl)cc23)cc1` (single isomer, unassigned) [Compound 148, (S) or (R)-5-chloro-1′-(2-{4-[methyl(methylimino)oxo-λ^6-sulfanyl]phenoxy}ethyl)-1,2-dihydrospiro[indole-3,4′-piperidin]-2-one], in experiment [1], the half-maximal activity concentration (AC50) was found to be 960 nM. In addition, the EC50 in experiment [2] (setting [3]) was 107 nM.
`CN=S(C)(=O)c1ccc(OCCN2CCC3(CC2)C(=O)Nc2ccc(Cl)cc23)cc1` (single isomer, unassigned) [Compound 149, (R) or (S)-5-chloro-1′-(2-{4-[methyl(methylimino)oxo-λ^6-sulfanyl]phenoxy}ethyl)-1,2-dihydrospiro[indole-3,4′-piperidin]-2-one]: in experiment [1], the AC50 stood at 971 nM. The EC50 in experiment [2] (HEK293 overexpressing APOL1 G2) is 101 nM.
For `CN=S(C)(=O)c1ccc(OCCN2CCC3(CC2)C(=O)Nc2ccc(C#N)cc23)cc1` (single isomer, unassigned) [Compound 151, (S) or (R)-1′-(2-{4-[methyl(methylimino)oxo-λ^6-sulfanyl]phenoxy}ethyl)-2-oxo-1,2-dihydrospiro[indole-3,4′-piperidine]-5-carbonitrile], the AC50 in experiment [1] came out at 1740 nM. Also, in experiment [2] (setting [3]), the EC50 was found to be 397 nM.
In the case of `CN=S(C)(=O)c1ccc(OCCN2CCC3(CC2)C(=O)Nc2ccc(C#N)cc23)cc1` (single isomer, unassigned) [Compound 152, (R) or (S)-1′-(2-{4-[methyl(methylimino)oxo-λ^6-sulfanyl]phenoxy}ethyl)-2-oxo-1,2-dihydrospiro[indole-3,4′-piperidine]-5-carbonitrile], the AC50 in experiment [1] came to 1820 nM. The EC50 in experiment [2] (HEK293 overexpressing APOL1 G2) is 405 nM.
Consider `O=C1Nc2ccc(Cl)cc2C12CCN(CCOc1ccc(C3CCCS3(=O)=O)cc1)CC2` (single isomer, unassigned) [Compound 176, (S) or (R)-2-[4-(2-{5-chloro-2-oxo-1,2-dihydrospiro[indole-3,4′-piperidin]-1′-yl}ethoxy)phenyl]-1λ^6-thiolane-1,1-dione], for which the AC50 in experiment [1] was 547 nM. Moreover, the EC50 in experiment [2] (setting [3]) came to 46.9 nM.

As usually defined, the AC50 is the concentration giving half of the maximal activity seen. The term EC50 denotes the concentration at which the effect is half-maximal.
